According to patent US20110280881A1, “NOVEL ANTI-HSP90 MONOCLONAL ANTIBODY” (RIKEN, priority 2010, published 2011):

Assays:
[1] = tested on: DC2.4 cells and mouse GM-CSF-dependent BMDC; experiment: Influence of cytokines on expression of cell surface HSP90 (FACS with 6H8); format: cell-based; settings: for expression of cell surface HSP90 after IFN treatment: DC2.4 and mouse GM-CSF-dependent BMDC, 24 hours, IFNα 500 U/ml, IFNβ 500 U/ml, IFNγ 50 ng/ml; for MFI of cell surface HSP90 after cytokine treatment versus negative control: BMDC, cytokines 100 ng/ml or 10 ng/ml
Protocol: In view of the possibility that cytokines are variation factors for the expression of cell surface HSP90, the influences of various cytokines on the expression of cell surface HSP90 were examined as described below.
The solid bars indicate the MFI for BMDC incubated in the presence of high concentrations of IFNs (as in FIG. 5B) or other cytokines (100 ng/ml); the grey bars indicate the MFI for BMDC incubated in the presence of low concentrations of IFNs (as in FIG. 5B) or other cytokines (10 ng/ml). The open bars indicate the MFI for BMDC incubated in the absence of the cytokines as negative controls.

[2] = tested on: DC2.4 cells; experiment: Influence of HSP90 inhibitors on expression of cell surface HSP90 (FACS with 6H8); format: cell-based; settings: DC2.4, 37° C., 3 hours; OVA 1 mg/ml, radicicol 25 μM, novobiocin 400 μM
Protocol: DC2.4 cells were incubated in the presence of OVA (in FIG. 4A, i; 1 mg/ml), radicicola (in FIG. 4A, ii; 25 μM) or novobiocin (in FIG. 4A, iii; 400 μM) with 5% CO2 at 37° C. for 3 hours. Next, the cells were cooled on ice. To detect cell surface HSP90, the cells were stained with the 6H8 antibody and then analyzed by FACS.

[3] = tested on: OT-I CD8+ T cells; experiment: In vivo cross-presentation assay with free 6H8 antibody administered concurrently; parameters: species or system mouse; settings: antigen 0.3 μg with free 6H8 antibody 30 μg, 72 hours
Protocol: (1) CFSE-labeled CD8^+ T cells of an OT-I/CD45.1 mouse were transferred to recipient mice from the tail vein, with 6H8-OVA [or 6H8 (F(ab′)2)—OVA, or OVA, or IgG2a-OVA] (0.3 μg) and the free 6H8 antibody [or 6H8 (F(ab′)2) or IgG2a] (30 μg) administered from the tail vein concurrently. (2) 72 hours later, the spleen was recovered from each mouse, and 2×10^6 splenocytes were stained with the PE-CD45.1 antibody in a 96-well round-bottomed plate for 30 minutes (while cooling on ice). (3) The CFSE intensity of CD45.1-positive cells (OT-I CD8^+ T cells) was determined using FACS Canto (BD).

[4] = tested on: OT-I CD8+ T cells; experiment: In vitro cross-presentation assay with BMDC of normal and FcRγ KO mouse; format: cell-based; settings: BMDC pulsed 3 hours, co-culture with OT-I CD8+ T cells, IFNγ ELISA
Protocol: (1) A bone marrow-derived dendritic cells (BMDCs) were established from a normal mouse and an FcRγ KO mouse (supplied by Professor Akira Shibuya, Immunology, Life System Medical Sciences, Majors of Medical Sciences, Graduate School of Comprehensive Human Sciences, University of Tsukuba) as described below. Bone marrow was recovered from a mouse femur and tibia, and 1×10^6 cells each were cultured in a 24-well plate using 2 ml/well of a complete RPMI containing 20 ng/ml recombinant mouse GM-CSF (R&D). Half of the medium was exchanged for a fresh medium on day 3 of cultivation, and the cells obtained on day 5 of cultivation were used as the BMDC. (2) BMDCs at Day 5 induced in a GM-CSF-dependent manner was stained with biotin-6H8 (2.5 μg/ml) and streptavidin-APC (0.2 μg/ml), and its fluorescence was determined using FACS Canto (BD).
(1) A pellet of 1×10^6 BMDC cells at Day 5 induced in a GM-CSF-dependent manner were prepared in a 15-ml tube. After adding 400 μl of an antigen (6H8-OVA, OVA, or OVA257-264) thereto, the tube was incubated with 5% CO2 at 37° C. for 3 hours. The cells were fixed in 0.5% para-formaldehyde, after which the cells were washed with 0.1 M glycine and then with RPMI; thereafter, the density was adjusted to 1×10^5 cells/ml. (2) Concurrently, OT-I CD8^+ T cells were purified and the density was adjusted to 1×10^5 cells/ml. […]

| Molecule | MFI of cell surface HSP90 after cytokine treatment versus negative control [1] | influence on expression level of surface HSP90 [2] | further results |
| --- | --- | --- | --- |
| IFNγ: cytokine |  |  | expression of cell surface HSP90 after IFN treatment [1]: increased |
| IL-18: cytokine | no significant difference from the negative control |  |  |
| IL-15: cytokine | no significant difference from the negative control |  |  |
| IFNα |  |  | expression of cell surface HSP90 after IFN treatment [1]: increased |
| CO[C@@H]1[C@@H](OC(N)=O)[C@@H](O)[C@H](Oc2ccc3c(O)c(NC(=O)c4ccc(O)c(CC=C(C)C)c4)c(=O)oc3c2C)OC1(C)C [novobiocin] |  | no or almost no influence |  |
| IL-6: cytokine | no significant difference from the negative control |  |  |
| C[C@@H]1C[C@H]2O[C@@H]2/C=C\C=C\C(=O)Cc2c(Cl)c(O)cc(O)c2C(=O)O1 [radicicol] |  | no or almost no influence |  |
| ovalbumin [ovalbumin used as a model antigen] |  | do not influence | enhancing effect by the 6H8 antibody on proliferation reaction of OT-I CD8+ T cells with this antigen [3]: not noted; cross-presentation potential of FcRγ KO mouse-derived dendritic cells compared with normal mouse-derived dendritic cells [4]: equivalent |
| IL-5: cytokine | no significant difference from the negative control |  |  |
| OVA257-264: major OVA epitope peptide (SIINFEKL) |  |  | cross-presentation potential of FcRγ KO mouse-derived dendritic cells compared with normal mouse-derived dendritic cells [4]: equivalent |
